Publication PMC12029836, “Phytotoxicity, Cytotoxicity, and Antimicrobial Activity of Triethanolammonium Amino Acids Salts” (Molecules, 2025)
Several values for one entry are separate records, joined by “and”; a condition that tells them apart may be missing. Equal values may be shown once. Read-outs that look alike come from different tables or passages of the source.

Legend:
[1] = tested on: E. coli ATCC 8739; test: Antimicrobial activity, broth microdilution MIC/MBC; format: cell-based, Escherichia coli; conditions: nd—not detected; for MIC (%): E. coli ATCC 8739, 24 h at 37 °C, at least 90% growth inhibition; for MBC (%): E. coli ATCC 8739
[2] = tested on: Lepidium sativum L. seeds; conditions: 24 h incubation, mean(±SD), n = 3
[3] = tested on: S. aureus ATCC 6538; test: Antimicrobial activity, broth microdilution MIC/MBC; format: cell-based, Staphylococcus aureus; conditions: S. aureus ATCC 6538, 24 h at 37 °C, at least 90% growth inhibition; nd—not detected
[4] = tested on: C. albicans ATCC 10231; test: as above; format: cell-based, Candida albicans; conditions: nd—not detected; for MIC (%): C. albicans ATCC 10231, 24 h at 37 °C, at least 90% growth inhibition
[5] = tested on: Lepidium sativum L. roots; conditions: 24 h incubation, mean(±SD), n = 3
[6] = tested on: L929 fibroblasts; test: Mammalian cell cytotoxicity screening, resazurin viability; format: cell-based, mouse
[7] = 0.01% (w/w) compound in the medium
[8] = 0.03% (w/w) compound in the medium
[9] = 0.05% (w/w) compound in the medium
[10] = 0.10% (w/w) compound in the medium
[11] = 0.30% (w/w) compound in the medium
[12] = 0.50% (w/w) compound in the medium
[13] = 1.00% (w/w) compound in the medium
[14] = 2.00% (w/w) compound in the medium
[15] = 3.00% (w/w) compound in the medium
[16] = 4.00% (w/w) compound in the medium
[17] = 5.00% (w/w) compound in the medium

Structure (SMILES)	MIC (%) [1]	MBC (%) [1]	Inhibition of the Lepidium sativum seeds germination (ISG, %) [2, 7]	Inhibition of the Lepidium sativum seeds germination (ISG, %) [2, 8]	Inhibition of the Lepidium sativum seeds germination (ISG, %) [2, 9]	Inhibition of the Lepidium sativum seeds germination (ISG, %) [2, 10]	Inhibition of the Lepidium sativum seeds germination (ISG, %) [2, 11]	Inhibition of the Lepidium sativum seeds germination (ISG, %) [2, 12]	Inhibition of the Lepidium sativum seeds germination (ISG, %) [2, 13]	Inhibition of the Lepidium sativum seeds germination (ISG, %) [2, 14]	Inhibition of the Lepidium sativum seeds germination (ISG, %) [2, 15]	Inhibition of the Lepidium sativum seeds germination (ISG, %) [2, 16]	MIC (%) [3]	MIC (%) [4]	Inhibition of the root growth in pregerminated Lepidium sativum seeds (IRG, %) [5, 7]	Inhibition of the root growth in pregerminated Lepidium sativum seeds (IRG, %) [5, 8]	Inhibition of the root growth in pregerminated Lepidium sativum seeds (IRG, %) [5, 9]	Inhibition of the root growth in pregerminated Lepidium sativum seeds (IRG, %) [5, 10]	Inhibition of the root growth in pregerminated Lepidium sativum seeds (IRG, %) [5, 11]	Inhibition of the root growth in pregerminated Lepidium sativum seeds (IRG, %) [5, 12]	also measured
CC(N)C(=O)O.OCCN(CCO)CCO [[TEA][Ala]]	3.75%	7.50%	0.0(±1.2) %	0.0(±0.8) %	0.0(±1.2) %	0.0(±0.8) %	0.0(±0.5) %	9.4(±1.4) %	11.8(±1.6) %	17.7(±0.8) %	64.7(±0.8) %	88.3(±1.3) %	7.50%	1.88%	0.0(±0.0) %	0.0(±0.0) %	14.8(±1.5) %	19.7(±1.4) %	27.9(±1.2) %	36.1(±1.2) %	Inhibition of the Lepidium sativum seeds germination (ISG, %) [2, 17]: 100.0(±0.5) %; Inhibition of the root growth in pregerminated Lepidium sativum seeds (IRG, %) [5, 13]: 55.2(±0.8) %; Inhibition of the root growth in pregerminated Lepidium sativum seeds (IRG, %) [5, 14]: 67.2(±1.0) %; Inhibition of the root growth in pregerminated Lepidium sativum seeds (IRG, %) [5, 15]: 77.6(±0.6) %; Inhibition of the root growth in pregerminated Lepidium sativum seeds (IRG, %) [5, 16]: 79.3(±0.6) %; Inhibition of the root growth in pregerminated Lepidium sativum seeds (IRG, %) [5, 17]: 89.7(±0.5) %; ED20 ([6]; 24h exposure): 0.54±0.06%; ED50 ([6]; 24h exposure): 0.57±0.04%; ED80 ([6]; 24h exposure): 0.59±0.11%; ED20 ([6]; 48h exposure): 0.25±0.03%; ED50 ([6]; 48h exposure): 0.42±0.02%; ED80 ([6]; 48h exposure): 0.63±0.03%
N[C@@H](CC(=O)O)C(=O)O.OCCN(CCO)CCO [[TEA][Asp]]	7.50%	15%	0.0(±0.0) %	0.0(±0.0) %	0.0(±0.0) %	0.0(±0.0) %	0.0(±0.0) %	0.0(±0.0) %	0.0(±0.0) %	0.0(±0.0) %	3.5%	16.2(±1.3) %	15%	15%	0.0(±0.0) % and 0%	0.0(±0.0) % and 0%	0.0(±0.0) % and 0%	0.0(±0.0) % and 0%	9.1%	12.9%	MBC (%) ([4]; C. albicans ATCC 10231): 15%; Inhibition of the root growth in pregerminated Lepidium sativum seeds (IRG, %) [5, 14]: 43.9(±1.3) %; Inhibition of the root growth in pregerminated Lepidium sativum seeds (IRG, %) [5, 15]: 44.2(±1.0) %; Inhibition of the root growth in pregerminated Lepidium sativum seeds (IRG, %) [5, 16]: 56.3(±1.0) %; Inhibition of the root growth in pregerminated Lepidium sativum seeds (IRG, %) [5, 17]: 68.3%; ED20 ([6]; 24h exposure): 0.47±0.03%; ED50 ([6]; 24h exposure): 0.66±0.03%; ED80 ([6]; 24h exposure): 0.86±0.09%; ED20 ([6]; 48h exposure): 0.30±0.02%; ED50 ([6]; 48h exposure): 0.50±0.01%; ED80 ([6]; 48h exposure): 0.71±0.01%
NC(CCC(=O)O)C(=O)O.OCCN(CCO)CCO (stereo not drawn) [[TEA][Glu]]	7.50%	15%	0.0(±0.0) %	0.0(±0.0) %	1.8(±0.5) %	3.6(±0.8) %	5.4(±1.3) %	8.9(±0.8) %	10.7(±1.3) %	10.7(±1.3) %	14.3%	21.4(±0.5) %	15%	15%	0.0(±0.0) % and 0%	0.0(±0.0) % and 0%	4.0(±2.4) %	4.9(±2.7) %	5.8%	21%	Inhibition of the Lepidium sativum seeds germination (ISG, %) [2, 17]: 33.9%; Inhibition of the root growth in pregerminated Lepidium sativum seeds (IRG, %) [5, 13]: 36.3(±2.2) %; Inhibition of the root growth in pregerminated Lepidium sativum seeds (IRG, %) [5, 14]: 44.5(±1.8) %; Inhibition of the root growth in pregerminated Lepidium sativum seeds (IRG, %) [5, 15]: 61.4(±1.0) %; Inhibition of the root growth in pregerminated Lepidium sativum seeds (IRG, %) [5, 16]: 79.4(±0.8) %; Inhibition of the root growth in pregerminated Lepidium sativum seeds (IRG, %) [5, 17]: 82.4(±0.5) %
NCCCC[C@H](N)C(=O)O.OCCN(CCO)CCO [[TEA][Lys]]	0.94%	3.75%	0.0(±0.0) %	0.0(±0.0) %	0.0(±0.0) %	0.0(±0.0) %	0.0(±0.0) %	0.0(±0.0) %	1.9(±0.8) %	11.5%	38.5%	57.7(±3.1) %	1.88%	0.94%	9.2(±1.9) %	14.6(±2.1) %	20.0(±1.9) %	24.5(±1.9) %	52.7(±1.7) %	62.3(±1.2) %	Inhibition of the root growth in pregerminated Lepidium sativum seeds (IRG, %) [5, 13]: 63.5(±0.9) %; Inhibition of the root growth in pregerminated Lepidium sativum seeds (IRG, %) [5, 14]: 78.9(±0.8) %; Inhibition of the root growth in pregerminated Lepidium sativum seeds (IRG, %) [5, 15]: 84.9(±0.8) %; Inhibition of the root growth in pregerminated Lepidium sativum seeds (IRG, %) [5, 16]: 90.2(±0.6) %; Inhibition of the root growth in pregerminated Lepidium sativum seeds (IRG, %) [5, 17]: 94.9(±0.5) %; ED20 ([6]; 24h exposure): 0.23±0.01%; ED50 ([6]; 24h exposure): 0.43±0.01%; ED80 ([6]; 24h exposure): 0.69±0.02%; ED20 ([6]; 48h exposure): 0.21±0.01%; ED50 ([6]; 48h exposure): 0.33±0.01%; ED80 ([6]; 48h exposure): 0.46±0.01%
